Data reported in publication PMC4628094, “In Vitro Assessment of Uptake and Lysosomal Sequestration of Respiratory Drugs in Alveolar Macrophage Cell Line NR8383” (Pharmaceutical Research, 2015).
Like-named read-outs stand apart in the source and are kept apart here. Marks after values point to notes of the source that are not given here.

Key:
[1] = Uptake kinetics of clarithromycin in NR8383, two-step method; format: in vitro ADME, rat; settings: rat, incubation media of NR8383 cells; NR8383 incubation media; read-out: fraction unbound in the media (fumed)
[2] = test system: NR8383 cells; experiment: as above; format: in vitro ADME, rat; settings: in the presence of NH4Cl
[3] = test system: NR8383 cells; experiment: LysoTracker Red (LTR) confocal assessment of lysosomal sequestration in NR8383; format: cell-based, rat; settings: drug 5 μM co-incubated with 200 nM LTR, 1 h
[4] = Physicochemical properties, experimental literature values (Table I); settings: classification in Table I
[5] = test system: NR8383 cells; settings: NR8383, 5 μM drug, 5 min
[6] = test system: NR8383 cells
[7] = test system: NR8383 cell line and granule fraction (containing lysosomes); settings: ref ([12]), cited from earlier work
[8] = experimental value; ref ([21])-([30]) per drug, Table I; cited from earlier work
[9] = test system: NR8383 cells; experiment: Drug uptake in NR8383 at 37 and 4°C (CLuptake, CLdiff, Kp)
[10] = test system: NR8383 cells; experiment: Lysosomal sequestration studies in NR8383 with NH4Cl, monensin and nigericin; settings: for Reduction in uptake clearance (%): preliminary optimisation; for % Reduction in Kp by NH4Cl: NH4Cl 20 mM
[11] = test system: NR8383 cells; experiment: Accumulation (Kp) in NR8383 over a concentration range, two-site binding model; settings: apparent saturable uptake equilibrium constant, two-site binding model, control
[12] = test system: isolated perfused lungs of rats; settings: depending on concentration, ref ([37],[43],[44]); cited from earlier work
[13] = test system: Lysosomes isolated from male Wistar rat liver; parameters: method as in ref (4) (a number printed in a supplementary file, which may have a reference list of its own: not looked up in the article's list); settings: 10 min, ref (4), cited from earlier work
[14] = test system: Lung tissue slices from male Wistar rats; parameters: method as in ref (5) (a number printed in a supplementary file, which may have a reference list of its own: not looked up in the article's list); settings: NH4Cl 20 mM, drug 5 µM, 60 min, ref (5); cited from earlier work
[15] = test system: Liver tissue slices from male Wistar rats; parameters: method as in ref (5) (a number printed in a supplementary file, which may have a reference list of its own: not looked up in the article's list); settings: NH4Cl 20 mM, drug 5 µM, 60 min, ref (5); cited from earlier work
[16] = test system: Lung granule fraction containing lysosomes from male Wistar rats; parameters: method as in ref (6) (a number printed in a supplementary file, which may have a reference list of its own: not looked up in the article's list); settings: NH4Cl 10 mM, drug 1 µM, 10 min; ref (6); cited from earlier work
[17] = test system: Lung tissue slices from male Wistar rats; parameters: method as in ref (8) (a number printed in a supplementary file, which may have a reference list of its own: not looked up in the article's list); settings: NH4Cl 20 mM, drug 5 µM, 60 min, ref (8); cited from earlier work
[18] = test system: Liver tissue slices from male Wistar rats; parameters: method as in ref (8) (a number printed in a supplementary file, which may have a reference list of its own: not looked up in the article's list); settings: NH4Cl 20 mM, drug 5 µM, 60 min, ref (8); cited from earlier work
[19] = test system: Lung tissue slices from male Wistar rats; parameters: method as in ref (9) (a number printed in a supplementary file, which may have a reference list of its own: not looked up in the article's list); settings: NH4Cl 20 mM, drug 5 µM, 60 min, ref (9); cited from earlier work
[20] = test system: Liver tissue slices from male Wistar rats; parameters: method as in ref (9) (a number printed in a supplementary file, which may have a reference list of its own: not looked up in the article's list); settings: NH4Cl 20 mM, drug 5 µM, 60 min, ref (9); cited from earlier work
[21] = test system: Brain slices from male Wistar rats; parameters: method as in ref (10) (a number printed in a supplementary file, which may have a reference list of its own: not looked up in the article's list); settings: drug 5 µM, 60 min, ref (10), cited from earlier work
[22] = test system: Lung tissue slices from male Wistar rats; parameters: method as in ref (14) (a number printed in a supplementary file, which may have a reference list of its own: not looked up in the article's list); settings: monensin 10 µM, drug 5 µM, 60 min, ref (14); cited from earlier work
[23] = test system: Liver tissue slices from male Wistar rats; parameters: method as in ref (14) (a number printed in a supplementary file, which may have a reference list of its own: not looked up in the article's list); settings: monensin 10 µM, drug 5 µM, 60 min, ref (14); cited from earlier work
[24] = test system: Primary rat cerebellar neurons; parameters: method as in ref (15) (a number printed in a supplementary file, which may have a reference list of its own: not looked up in the article's list); settings: drug 10^-4 µM, 30 min, ref (15), cited from earlier work
[25] = test system: Lysosomes isolated from male Wistar rat liver; parameters: method as in ref (16) (a number printed in a supplementary file, which may have a reference list of its own: not looked up in the article's list); settings: nigericin […], drug 1 µM, 20 min, ref (16), cited from earlier work
[26] = test system: NR8383 cell line; parameters: method as in ref (11) (a number printed in a supplementary file, which may have a reference list of its own: not looked up in the article's list); settings: NH4Cl 10 mM, drug 50 µM, 120 min; ref (11); cited from earlier work

CC[C@H]1OC(=O)[C@H](C)[C@@H](O[C@H]2C[C@@](C)(OC)[C@@H](O)[C@H](C)O2)[C@H](C)[C@@H](O[C@@H]2O[C@H](C)C[C@H](N(C)C)[C@H]2O)[C@](C)(OC)C[C@@H](C)C(=O)[C@H](C)[C@@H](O)[C@]1(C)O [Clarithromycin]
fraction unbound [1]: 0.93 ± 0.03
Km ([2]; active uptake): 28.5 µM
Vmax ([2]; active uptake): 12.4 pmol/min/10^6 cells
total CLuptake from kinetic parameters [2]: 0.46 μL/min/10^6 cells
reduction in LTR accumulation [3]: 86%
Acid–base Property [4]: Base
% Reduction in Kp by Monensin ([5]; monensin 5 μM): 77%
% Reduction in Kp by Nigericin ([5]; nigericin 10 μM): 82%
cytotoxicity (LDH) compared to positive control ([6]; drug 50 μM): < 3%
cytotoxicity (LDH) compared to positive control ([6]; drug 100 μM): 10%
Kp ([7]; NR8383, 10 min, 37°C, initial concentration 50 μM): ~ 16
reduction in Kp at 4°C compared to 37°C ([7]; NR8383): 90%
reduction of amount of drug in the cells by NH4Cl ([7]; NR8383): approximately half
reduction of fraction of drug in the granules compartment (containing the lysosomes) by NH4Cl ([7]; NR8383): 75%
LogD7.4 [8]: 1.57
Contribution of passive (%) ([9]; NR8383, 5 μM, CLdiff relative to CLuptake): 0.53%
mean uptake of 5 μM clarithromycin across experiments ([9]; control of individual experiments, n = 59): 5.50 ± 2.96 μl/min/10^6 cells
Reduction in uptake clearance (%) ([10]; 5 µM drug, + 10 mM NH4Cl): 85%
Reduction in uptake clearance (%) ([10]; 5 µM drug, + 20 mM NH4Cl): 93%
Reduction in uptake clearance (%) ([10]; 5 µM drug, + 50 mM NH4Cl): 94%
Reduction in uptake clearance (%) ([10]; 20 µM drug, + 10 mM NH4Cl): 85%
Reduction in uptake clearance (%) ([10]; 20 µM drug, + 20 mM NH4Cl): 89%
Reduction in uptake clearance (%) ([10]; 20 µM drug, + 50 mM NH4Cl): 93%
% Reduction in Kp by NH4Cl ([10]; NR8383, 5 μM drug): 84 ± 6.6 %
% Reduction in Kp by Monensin ([10]; NR8383, 5 μM drug, monensin 5 μM, 5 min): 77 ± 8.5 %
% Reduction in Kp by Nigericin ([10]; NR8383, 5 μM drug, nigericin 10 μM, 5 min): 82 ± 9.6 %
% Reduction in Kp by NH4Cl ([10]; NR8383, 20 µM drug): 75 ± 8.3 %
% Reduction in CLuptake by Monensin (5 µM) ([10]; NR8383, at 5 µM drug): 78 ± 8.0 %
% Reduction in CLuptake by NH4Cl (20 mM) ([10]; NR8383, at 5 µM drug): 85 ± 7.5 %
% Reduction in CLuptake by Nigericin (10 µM) ([10]; NR8383, at 5 µM drug): 84 ± 9.2 %
% Reduction in CLuptake by NH4Cl (20 mM) ([10]; NR8383, at 20 µM drug): 78 ± 9.0 %
reduction of Kp and CLuptake in the presence of NH4Cl and monensin/nigericin ([10]; NR8383, summary in Abstract): 59–85%
reduction in Kp in the presence of chemical agents (summary in Discussion) ([10]; NR8383, NH4Cl, monensin, nigericin): ≥ 65%
KU1 [11]: 1.18 ± 1.45 µM

CN(C)CCCN1c2ccccc2CCc2ccccc21 [Imipramine]
cytotoxicity (LDH) compared to positive control ([6]; drug 50 μM): less than 1%
cytotoxicity (LDH) compared to positive control ([6]; drug 100 μM): less than 1%
estimated Kp [12]: 17–44
Reduction in total uptake (%) ([13]; NH4Cl 50 mM, drug 10^-4 µM): 70^b %
Reduction of total uptake (%) ([13]; nigericin 50 µM, drug 0.001 µM): 70^b %
Reduction in total uptake (%) [14]: 59%
Reduction in total uptake (%) [15]: 58%
Reduction in total uptake (%) [16]: 31%
Reduction in total uptake (%) [17]: 35%
Reduction in total uptake (%) [18]: 57%
Reduction in total uptake (%) [19]: 49%
Reduction in total uptake (%) [20]: 62%
Reduction in total uptake (%) ([21]; NH4Cl 20 mM): 41%
Reduction of total uptake (%) ([21]; monensin 10 µM): 37%
Reduction of total uptake (%) [22]: 64%
Reduction of total uptake (%) [23]: 48%
Reduction of total uptake (%) ([24]; monensin 10 µM): 83%
Reduction of total uptake (%) ([24]; monensin […]): 50%
Reduction of total uptake (%) ([25]; relative to control with ATP): 99%
Reduction of total uptake (%) ([25]; relative to control without ATP): 93%
KU1 [11]: 0.9 ± 0.3 µM

CC[C@H]1OC(=O)[C@H](C)C(=O)[C@H](C)[C@@H](O[C@@H]2O[C@H](C)C[C@H](N(C)C)[C@H]2O)[C@](C)(OC)C[C@@H](C)C(=O)[C@H](C)[C@H]2N(CCCCn3cnc(-c4cccnc4)c3)C(=O)O[C@]12C [Telithromycin]
Reduction in total uptake (%) [26]: 80^b %
